The source of these data is patent US7297771B2 (priority 1992, dated 2007).

The Ki is a dissociation constant, usually derived from enzyme kinetics or from competition with a known ligand. Read a low Ki as tighter binding.

For experiment [1], the target named is K56 receptor (mouse delta opioid receptor) (Mus musculus, UniProt P32300). Description: biochemical.
For experiment [2], the target named is T1, delta opioid receptor of NG 108-15 cells (Mus musculus, UniProt P32300).
T1 construct: NG 108-15 cells, which express the delta opioid receptor naturally; endogenous in cells; host or cells: NG 108-15 cells (membranes)
Put plainly: biochemical. It counts as binding.

Sequence of K56 receptor (mouse delta opioid receptor) (P32300 whole entry): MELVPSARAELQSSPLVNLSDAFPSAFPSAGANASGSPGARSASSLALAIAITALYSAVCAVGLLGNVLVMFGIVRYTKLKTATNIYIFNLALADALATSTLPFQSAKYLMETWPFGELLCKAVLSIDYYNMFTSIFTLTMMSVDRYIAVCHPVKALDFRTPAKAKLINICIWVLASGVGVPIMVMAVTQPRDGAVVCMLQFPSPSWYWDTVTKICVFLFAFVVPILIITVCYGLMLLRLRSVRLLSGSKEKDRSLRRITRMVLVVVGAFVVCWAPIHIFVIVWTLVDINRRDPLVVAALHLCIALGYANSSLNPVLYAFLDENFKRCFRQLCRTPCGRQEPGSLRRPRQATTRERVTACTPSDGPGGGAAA
T1 sequence (P32300 whole entry): as above

As for `CCC12CCN(CC3(O)CC3)C(Cc3ccc(O)cc31)C2(C)C` (stereo not shown) [Bremazocine, bremazocine], the inhibitory constant (Ki) in experiment [1] (PKi Cos K56) is 5.62 nM; in experiment [1] (inhibition constant Ki), 5.7 nM; in experiment [2] it was 1.78 nM.
In experiment [1] (inhibition constant Ki), `CN1CC[C@]23CCCC[C@H]2[C@H]1Cc1ccc(O)cc13` [Levorphanol, levorphanol] had a Ki of 20.9 nM.
